Measurements: patent US20260240847A1, “COMPOUNDS WITH ANTI-TUMOR ACTIVITY AGAINST CANCER CELLS BEARING TYROSINE KINASE INHIBITOR RESISTANT EGFR MUTATIONS” (BOARD OF REGENTS, THE UNIVERSITY OF TEXAS SYSTEM, priority 2019, published 2026)

Tests used:
Test in all cases: Ba/F3 cell viability, Cell Titer Glo
EGFR E709K L858R = EGFR E709K L858R (Homo sapiens, UniProt P00533, E709K/L858R); conditions: read-out: IC50 Values; Ba/F3 cells expressing EGFR E709K L858R, 72 hours
Method: (§1) Cell viability was determined by the Cell Titer Glo assay.
(§2) Briefly, stable Ba/F3 cell lines were generated by retroviral transduction of Ba/F3 cell line for 12 hours. […] Three days after transduction, 2 μg/ml puromycin (Invitrogen) was added to the RPMI media. Cell lines were then grown in the absence of IL-3 for two weeks and cell viability was assessed every three days using the Cell Titer Glo assay (Progema).
(§3) Briefly, 2000-3000 cells per well were plated in 384-well plates (Greiner Bio-One) in technical triplicate. Cells were treated with seven different concentrations of tyrosine kinase inhibitors or vehicle alone at a final volume of 40 μL per well. After 3 days, 11 μL of Cell Titer Glo was added to each well. Plates were shaken for 15 minutes, and bioluminescence was determined using a FLUOstar OPTIMA multi-mode micro-plate reader (BMG LABTECH). Bioluminescence values were normalized to DMSO treated cells, and normalized values were plotted in GraphPad Prism using non-linear regression fit to normalized data with a variable slope.

EGFR G719S = EGFR G719S (Homo sapiens, UniProt P00533, G719S); conditions: read-out: IC50 Values; Ba/F3 cells expressing EGFR G719S, 72 hours
Method: as §1, §2, §3

EGFR S768I/V769L = EGFR S768I/V769L (Homo sapiens, UniProt P00533, S768I/V769L); conditions: read-out: IC50 Values; Ba/F3 cells expressing EGFR S768I/V769L, 72 hours
Method: as §1, §2, §3

EGFR S784F = EGFR S784F (Homo sapiens, UniProt P00533, S784F); conditions: read-out: IC50 Values; Ba/F3 cells expressing EGFR S784F, 72 hours
Method: as §1, §2, §3

EGFR A767insASV = EGFR A767insASV (Homo sapiens, UniProt P00533, DUP767-769); conditions: read-out: IC50 Values; Ba/F3 cells expressing EGFR A767insASV, 72 hours
Method: as §1, §2, §3

EGFR L833V = EGFR L833V (Homo sapiens, UniProt P00533, L833V); conditions: read-out: IC50 Values; Ba/F3 cells expressing EGFR L833V, 72 hours
Method: as §1, §2, §3

EGFR G719A/R776C = EGFR G719A/R776C (Homo sapiens, UniProt P00533, G719A/R776C); conditions: read-out: IC50 Values; Ba/F3 cells expressing EGFR G719A/R776C, 72 hours
Method: as §1, §3

EGFR L861Q = EGFR L861Q (Homo sapiens, UniProt P00533, L861Q); conditions: read-out: IC50 Values; Ba/F3 cells expressing EGFR L861Q, 72 hours
Method: as §1, §2, §3

EGFR L858R/L792H = EGFR L858R/L792H (Homo sapiens, UniProt P00533, L792H/L858R); conditions: read-out: IC50 Values; Ba/F3 cells expressing EGFR L858R/L792H, 72 hours
Method: The transforming capability of the mutations was then evaluated by sustained cell viability following IL-3 deprivation. Activating EGFR mutant Ba/F3 cells were then screened against EGFR TKIs. Cell viability was determined by the Cell Titer Glo assay.
Ba/F3 cells expressing acquired atypical mutations spanning exons 18-21 were treated with inhibitors for 72 hours. […] Briefly, stable Ba/F3 cell lines were generated by retroviral transduction of Ba/F3 cell line for 12 hours. […] Three days after transduction, 2 μg/ml puromycin (Invitrogen) was added to the RPMI media. Cell lines were then grown in the absence of IL-3 for two weeks and cell viability was assessed every three days using the Cell Titer Glo assay (Progema).
as §3

SMILES: C=CC(=O)N1CC[C@@H](Oc2nc(Nc3ccc(N4CCC(N5CCN(C)CC5)CC4)cc3)c(C(N)=O)nc2CC)C1 [Naquotinib]
- IC50 (EGFR E709K L858R): 11 nM
- IC50 (EGFR G719S): 36.7 nM
- IC50 (EGFR S768I/V769L): 234 nM
- IC50 (EGFR S784F): 70.2 nM
- IC50 (EGFR A767insASV): 217 nM
- IC50 (EGFR L833V): 402 nM
- IC50 (EGFR G719A/R776C): 39 nM
- IC50 (EGFR L861Q): 77.4 nM
- IC50 (EGFR L858R/L792H): 34.3 nM
